From US8357653B2, “System and method for inhibiting cellular proliferation with tachykinins” (priority 2000, dated 2013)
Several values for one entry are separate records, joined by “and”; a condition that tells them apart may be missing. Equal values may be shown once. Read-outs that look alike come from different tables or passages of the source. Ends that are not written are not given here. Peptide text beside a SMILES is read from it.

What was measured:
[1] = tested on: Lewis lung carcinoma cells; test: in vivo tumorigenicity model, Lewis lung carcinoma in C57Bl/6 mice, intra-tumor injection; conditions: for tumor growth inhibition: Cisplatin group
Procedure: The inhibitory action of Sialokinin I and II, SEQ. ID. NO. 1 and NO. 2, against tumor tissue proliferation (Lewis lung carcinoma) was investigated. To test the efficacy of three different concentrations of peptide test articles in an in vivo tumorigenicity model using Lewis lung carcinoma cells.
Lewis lung carcinoma cells were obtained from ATCC and cultured in monolayers in DMEM supplemented with 10% heat-inactivated FBS, 4 mM L-glutamine, 100 μg/ml streptomycin and 100 units/ml penicillin for two passage cycles at 37° C. in 95% air and 5% CO2. Cells were harvested from subconfluent cultures by 60-second exposure to trypsin/EDTA, washed in serum free medium and brought to the correct concentration of cells in PBS.
On day 0, 35 female C57Bl/6 mice 6-8 weeks of age were shaved on the right lateral thorax and injected subcutaneously with 1.0×10^6 Lewis lung carcinoma cells. A total of 35 mice were injected so that 25 tumor-bearing mice with the correct tumor size could be used for the study. Tumors were allowed to develop for four days post cell injection at which time biweekly tumor measurements (L×W), in millimeters, were recorded for 3 weeks. […] The data are presented as mean tumor mass plotted over time.
When tumors reached a size of 100-200 mg, 25 mice were selected and randomly sorted into five groups. The five groups of Lewis lung tumor bearing mice were used to test three different test article concentrations.
The first group contained animals injected with the test article carrier as a control group. The control animals were injected with 50 μl intra-tumor injections of sterile saline and 1% bovine serum albumin (BSA), three times per week for a total of 5 doses. The control group contained mice that received the vehicle as a negative control.
The second group contained animals treated with 6 mg/kg of Cisplatin (Platinol; Bristol-Myers Squibb Co.) as a positive control administered according to manufacture's specifications by intravenous tail vein injection, every fourth day for a total of 3 doses. The Cisplatin group contained mice that received Cisplatin as a positive control.
The third group contained animals that received 5 μM of test article dissolved in sterile saline and 1% bovine serum albumin (BSA) injected intra-tumor with 50 μl injections, three times per week for a total of 5 doses.
The fourth group contained animals that received 10 μM of test article dissolved in sterile saline and 1% bovine serum albumin (BSA) injected intra-tumor with 50 μl injections, three times per week for a total of 5 doses.
The fifth group contained animals that received 100 μM of test article dissolved in sterile saline and 1% bovine serum albumin (BSA) injected intra-tumor with 50 μl injections, three times per week for a total of 5 doses.
Injections began on the day that animals were randomly sorted into one of five groups. Animals in the control, 5 μM, 10 μM, and 100 μM groups were dosed every other workday with an intra-tumor subcutaneous injection for a total of 5 doses. Tumor size was measured and recorded twice weekly using calipers. Mice were examined twice weekly for morbidity, and any abnormal findings were recorded. When tumors reached a mean target size of 1000 mg in control mice the animals were euthanized and two mice from each group were randomly selected and sent to necropsy for tumor and tissue collection. Mice were photographed before harvesting tumors and major organs (heart, lung, liver, kidney, spleen, GI tract and brain). No mice died while on study.

[2] = tested on: Lewis lung carcinoma cells; test: in vivo tumorigenicity model, Lewis lung carcinoma in immuno-compromised (nu/nu) mice, intravenous injection
Procedure: To test the efficacy of different concentrations of the Sialokinin peptides, test articles, SEQ. ID. NO. 1 and NO. 2, in an in vivo tumorigenicity model, a study was conducted with Lewis lung carcinoma in immuno-compromised (nu/nu) mice. Lewis lung carcinoma cells were cultured in Dulbecco's Modified Eagles Medium (DMEM), supplemented with 4 mM L-glutamine, 0.1 mM non-essential amino acids, 10% heat inactivated fetal bovine serum (FBS), […] Gentamicin and 250 μg/ml Fungizone. Cells were cultured in 5% CO2 and 95% air at 37° C. Exponentially growing cells were harvested and washed twice in phosphate buffered saline (PBS) to remove any traces of trypsin or serum. The washed cells were suspended in Hanks Balanced Salt Solution (HBSS) for injection.
Athymic nude mice were injected subcutaneously in the right lateral thorax with 10^4 Lewis lung carcinoma cells. A total of 38 mice were injected, with 33 tumor-bearing mice used in the study. When tumors reached a target window size of 100-200 mg, 33 tumor-bearing mice were randomly selected and sorted into one of three groups. Group 1 contained mice that received the test article carrier by an IV injection as a negative control. […]
Tumor measurements were recorded three times a week using calipers. […] Clinical observations on each mouse were done twice weekly for signs of toxicity and morbidity and any abnormal findings were recorded. […]

warts = test: human wart trial, subcutaneous injection into the wart; format: in vivo
Procedure: A trial was conducted to observe the anti-proliferative action of Sialokinins, SEQ. ID. NO. 1 and NO. 2, in the treatment of warts in a human application. This trial, conducted by a dermatologist, involved four volunteer human subjects who received two (2) subcutaneous injections of Sialokinin I and Sialokinin II into the wart. Injections of 100 μl of 5 μM were administered subcutaneously to each volunteer.
The warts chosen for this trial had been diagnosed as stable and thus any observable change in the size of the wart to the injections would be significant. […] Of the 3 patients, reductions in size of 19%, 79%, and 31% were observed. When no further treatments were administered, no further reductions were observed.

guinea pig ileum = conditions: read-out: K0.5; cited from earlier work
spleen cell = conditions: 25 μg/ml of salivary gland extract, cited from earlier work
ASM cells = conditions: cited from earlier work; for proliferative response in ASM cells: dose range of 10^−12 to 10^−6M
[3] = two 100 μl injections of 5 μM into the wart

N.N.[Cl][Pt][Cl] [Cisplatin]
body weight change ([1]; 6 mg/kg intravenous): significant weight loss | growth compared to control tumor growth ([1]; 6 mg/kg intravenous, day 7): 58% | growth compared to control tumor growth ([1]; 6 mg/kg intravenous, day 10): 93% | growth compared to control tumor growth ([1]; 6 mg/kg intravenous, day 15): 73% | tumor size compared to control group mice ([1]; 6 mg/kg intravenous, p<0.05): significantly smaller tumors | tumor growth inhibition ([1]; day 7): 42% | tumor growth inhibition ([1]; day 10): 7% | tumor growth inhibition ([1]; day 15): 27%

Asn^1-Thr^2-Gly^3-Asp^4-Lys^5-Phe^6-Tyr^7-Gly^8-Leu^9-Met^10-NH2 (NTGDKFYGLM-NH2; listed as Aedes aegypti) [SK1]
necropsy, toxicity or tissue necrosis ([2]; 200 μl intravenous injection of 5 μM and 10 μM): no detectable toxicity or tissue necrosis | weight loss in study animals ([2]; intravenous 5 μM and 10 μM, during the study period): No weight loss | side effects (warts; first clinical exposure, human): no side effects were detected | systemic symptoms (warts; two 100 μl injections of 5 μM): no systemic symptoms were detected | toxicity in trial subjects (warts; two 100 μl injections of 5 μM): no measured or observed toxicity | patients showing a reduction in wart size (warts; [3]): 3 of 4 | reduction in wart size (individual patients) (warts; [3]): 19% and 79% and 31% | EC50 (guinea pig ileum): 6.58 nM | suppression of spleen cell proliferation (spleen cell; stimulated with IL-2, antigen activated cells): 39% | suppression of spleen cell proliferation (spleen cell; stimulated with IL-2, naïve cells): 66% | suppression of spleen cell proliferation (spleen cell; stimulated with IL-4, antigen activated cells): 27% | suppression of spleen cell proliferation (spleen cell; stimulated with IL-4, naïve cells): 39%

His^1-Lys^2-Thr^3-Asp^4-Ser^5-Phe^6-Val^7-Gly^8-Leu^9-Met^10-NH2 (HKTDSFVGLM-NH2) [NKA]
proliferative response in ASM cells (ASM cells): Neither NKA nor NKB induced significant proliferative responses | ASM cell count (ASM cells; highest administered concentration of 10^−4M): relatively modest increase in ASM cell count

Asp^1-Met^2-His^3-Asp^4-Phe^5-Phe^6-Val^7-Gly^8-Leu^9-Met^10-NH2 (DMHDFFVGLM-NH2) [NKB]
proliferative response in ASM cells (ASM cells): Neither NKA nor NKB induced significant proliferative responses

Arg^1-Pro^2-Lys^3-Pro^4-Gln^5-Gln^6-Phe^7-Phe^8-Gly^9-Leu^10-Met^11-NH2 [Substance P]
EC50 (guinea pig ileum): 4.94 nM | concentration eliciting the maximum proliferative response (ASM cells; ASM cells): 10^−4 M | ASM cell number (ASM cells; concentration range of 10^−14 to 10^−4M): dose-dependent increases in ASM cell number

CSCC[C@H](NC(=O)[C@H](CC(C)C)NC(=O)CNC(=O)[C@H](Cc1ccc(O)cc1)NC(=O)[C@H](Cc1ccccc1)NC(=O)[C@H](CCCCN)NC(=O)[C@H](CC(=O)O)NC(=O)CNC(=O)[C@@H](NC(=O)[C@@H](N)CC(=O)O)[C@@H](C)O)C(N)=O [Sialokinin II, Asp^1-Thr^2-Gly^3-Asp^4-Lys^5-Phe^6-Tyr^7-Gly^8-Leu^9-Met^10-NH2] (H-DTGDKFYGLM-NH2)
EC50 (guinea pig ileum): 5.07 nM
